Experimental data published in US20040110847A1, “Compounds extracted from Sap of Rhus succedanea” (priority 2002, published 2004).
Values after ≈ are worked out from the molar mass of the structure shown.

Legend:
Hela cells = assay: Cytotoxicity, acid phosphatase assay, HeLa; assay type: cell-based, Human; details: 72 h; concentration of 50% growth inhibition
Experimental: (§1) (5). Determination of Cytotoxicity. Four human cancer cell lines, HeLa, Huh7, HCT116 and LoVo were used to assess cytotoxicity of the purified compounds. All the cell lines, except Huh7 cells,^14 were purchased from American Type Culture Collection. The cells were cultured in Dulbecco's modified Eagle medium (DMEM) supplemented with 10% fetal calf serum (FCS), 100 units/ml penicillin and […] streptomycin at 37° C. under 5% CO2. Cells were grown in a 96 well plate (2000 cells/well) with or without the addition of compounds 1, 2 or 3 for 72 h. An acid phosphatase assay^14,15 was then used to quantitate the viable cells. Briefly, after the media were aspirated, the cells were washed with phosphate buffer saline (PBS) and then incubated with 100 μl of 0.1M sodium acetate buffer containing 10 mM p-nitrophenyl phosphate and 0.1% Triton X-100, and incubated at 37° C. for 1 h. The reaction was stopped by the addition of 10 μl of 1 N NaOH and coloration of the cells was measured at 410 nm by an ELISA reader. The concentrations of 50% growth inhibition (IC50) were interpolated from dose-dependent growth inhibition curves. The data HeLa, Huh7, HCT116 and LoVo presented were the averages derived from a minimum of triplicate independent experiments.

Huh7 cells = assay: Cytotoxicity, acid phosphatase assay, Huh7; assay type: cell-based, Human; details: 72 h; concentration of 50% growth inhibition
Experimental: as §1

HCT116 cells = assay: Cytotoxicity, acid phosphatase assay, HCT116; assay type: cell-based, Human; details: 72 h; concentration of 50% growth inhibition
Experimental: as §1

Lovo cells = assay: Cytotoxicity, acid phosphatase assay, LoVo; assay type: cell-based, Human; details: 72 h; concentration of 50% growth inhibition
Experimental: as §1

[1] = test system: four human cancer cell lines (HeLa, Huh7, HCT116, LoVo); assay: Cytotoxicity evaluation across four human cancer cell lines; assay type: cell-based
Experimental: as §1

[2] = Antioxidative potency (AOP), iron/ascorbate system with linoleic acid as substrate; assay type: biochemical; details: compared with BHT; FIG. 2; ca. 1, 4, 10 ppm; 37° C., 5 and 30 min
Experimental: (4). Determination of Antioxidative Activity: The procedure using an iron/ascorbate system reported by Yoon,^9 Chiou,^10 Decker,^11 Tamura,^12 and Sasaki^13 was modified. In a beaker (50 ml), 100 mg of linoleic acid, 1.0 g of Tween 20, and 20 ml of Tris-buffer (pH 7.4, 50 mM) were combined, gently shaken and emulsified with a sonicator for 2 min. An iron/ascorbate solution containing 30 μM FeCl3 and 200 μM ascorbic acid in the Tris-buffer (pH 7.4, 50 mM) was prepared daily. In a series of 1.5-ml microfuge tubes, 0.5 ml of the emulsified linoleic acid, 0.5 ml of the iron/ascorbate solution, and 0.1 ml of methanol containing various concentrations of the three compounds or BHT including 0, 10, 40 and 100 ppm (μg/ml) (resulting in ca. 0, 1, 4 and 10 ppm of concentration after combination) were deposited. Prior to incubation, the tubes were immersed and kept in an ice bath to minimize any reactions. To initiate reaction, the mixtures in the tubes were mixed by hand (gently to prevent foaming) and placed into the wells of a thermal block at 37° C. for 5 and 30 min. After incubation, the produced conjugated diene hydroperoxide (CDHP) contents were determined spectrophotometrically. […] The absorbance (A) at 234 nm of the mixture was measured. […] The percentage of AOP (capacity to inhibit peroxide formation in linoleic acid) was calculated as follows. […]

C/C=C/C=C/C/C=C\CCCCCCCCCc1cc(O)ccc1O [Compound 1, 10′(Z),13′(E),15′(E)-heptadecatrienylhydroquinone]
IC50 Hela cells (Hela cells): 2.8 µg/mL (≈ 8.17 µM) | IC50 Huh7 cells (Huh7 cells): 3.9 µg/mL (≈ 11.4 µM) | IC50 HCT116 cells (HCT116 cells): 2.0 µg/mL (≈ 5.84 µM) | IC50 Lovo cells (Lovo cells): 4.5 µg/mL (≈ 13.1 µM) | cytotoxic activity against four human cancer cell lines [1]: significant cytotoxic activity | antioxidative potency (AOP) [2]: close to that of BHT

CCC/C=C/C/C=C\CCCCCCCCCc1cc(O)ccc1O [Compound 2, 10′(Z),13′(E)-heptadecadienylhydroquinone]
IC50 Hela cells (Hela cells): 4.6 µg/mL (≈ 13.4 µM) | IC50 Huh7 cells (Huh7 cells): 6.0 µg/mL (≈ 17.4 µM) | IC50 HCT116 cells (HCT116 cells): 3.5 µg/mL (≈ 10.2 µM) | IC50 Lovo cells (Lovo cells): 5.6 µg/mL (≈ 16.3 µM) | cytotoxic activity against four human cancer cell lines [1]: significant cytotoxic activity | antioxidative potency (AOP) [2]: close to that of BHT
